{
  "source": "patent US20260345635A1",
  "about": "“SPRAY DRIED TREPROSTINIL FORMULATION” (Insmed Incorporated, priority 2023, published 2026)",
  "key": {"[1]": {"test": "In vitro aerosol performance of TPIP from HR RS01 DPI by Next Generation Impactor with breath simulator", "assay_type": "physicochemical", "details": "30 LPM; for FPD (<5 μm), TP: 16 mg capsule", "experimental": "All the experiments in the following examples of present disclosure were performed with the RS01 Model 7 Plastiape (Plastiape S.p.A., Osnago, Italy) high resistance (HR) (code 239700002AA) DPI device for evaluation. The following examples relate to in vitro aerosol performance of the capsules containing 16 and 32 mg TPIP utilizing the HR RS01 Plastiape device in response to more clinically relevant inhalation profiles deviating from the rectangular wave profile. The aerosol performance were evaluated at different inhalation volumes of 4 L, 2 L or 1 L and at a different peak inspiratory flow rate of 60 LPM corresponding to a pressure drop of 4 kPa or 30 LPM corresponding to a pressure drop of 0.89 kPa across the device to reflect a diverse set of user scenarios.\nAn RS01 Model 7 Plastiape (Plastiape S.p.A., Osnago, Italy) high resistance (HR) (code 239700002AA) DPI device was used for evaluation. The pressure drop across the HR device containing an empty capsule was measured as a function of flow rate between 30 to 100 L/min (LPM).\nTo evaluate the differences in aerosol performance in response to different breathing profiles, TPIP aerosol emitted from the HR Plastiape device was delivered to the NGI (MSP Corp., Shoreview, MN) at ambient temperatures and low humidity (<45% RH) under various scenarios generated by the breathing simulator (BRS 3100, Copley), as presented in FIG. 1. A mixing inlet (Copley) was attached in between the pre-separator and the induction port to allow a constant flow rate of 30 or 60 LPM to be achieved through the NGI, while varying the change in inhalation profiles from the HR Plastiape device via BRS system. The outlet port of the NGI was connected to a vacuum pump drawing 30 or 60 LPM airflow (X) via a critical flow controller (TPK 2100, Copley), and an airflow of 30 or 60 LPM (Y) was drawn into the mixing inlet to ensure that initially no airflow (X-Y=0) was drawn through the inhaler. Aerosolization of the powder into the NGI was triggered by the BRS system via a diversion valve that redirects the airflow (Y) into the BRS system. For example, if 30 LPM airflow of Y is redirected to the BRS system, this would cause 30 LPM airflow to be drawn through the inhaler and into the mixing inlet. Therefore, the simulated inhalation profile generated by the BRS system is identical to the inhalation profile through the inhaler.\nThe BRS software was manually programmed through a Word Pad script to simulate inhalation acceleration rates of 20, 5.88, 2, 1, and 0.5 L/sec^2 corresponding to 50, 170, 500, 1000, and 2000 millisecond (ms) ramp times for a total inhaled volume of 4 L, and for 2 and 1 L inhalation volumes at both extreme acceleration rates to achieve the 60 LPM flow rate. Additionally, the breathing profile scripts for the 1, 2, and 4 L inhalation volumes at 20 and 0.5 L/s^2 (corresponding to 50 and 2000 ms ramp times) to reach the 30 LPM flow rate are included. A trapezoidal waveform was used to maintain the 4 L total inhalation volume as well as to keep the maximum inhalation flow rate at 60 LPM corresponding to the 4 kPa pressure drop across the device (FIG. 2A). Additionally, the breathing profiles with reduced inhalation volumes of 1 and 2 L were evaluated at the two extreme acceleration rates of 20 and 0.5 L/s^2 (corresponding to 50 and 2000 ms ramp times) for the 60 LPM inspiratory flow rate (FIG. 2B), and 25 and 1000 ms ramp times for the 30 LPM inspiratory flow rate (FIG. 2C).\nThe aerosol performance of each inhalation profile was characterized for TP with respect to its emitted dose (ED), mass median aerodynamic diameter (MMAD), geometric standard deviation (GSD), fine particle fraction<5 μm (FPF) and fine particle dose<5 μm (FPD) as described below. The total recovery of TP was also measured to provide assurance that each experiment was conducted acceptably. […]"}, "[2]": {"test": "Aerosol performance of TPIP by NGI with four RS01 devices of different resistance", "assay_type": "physicochemical", "experimental": "FIGS. 8A-8C are graphs showing TP Fine Particle Fraction (FPF) (FIG. 8A); Fine Particle Dose (FPD) as a Function of Device Resistance for the 8 mg (blue), 16 mg (orange), and 32 mg (gray) Capsule Dose (FIG. 8B); and TP FPD as a Function of Capsule Dose for Each Device (FIG. 8C). Trend lines are only shown for the UHR and HR DPIs in FIG. 8C. The ultra-high resistance (UHR), the high resistance (HR), the medium resistance (MR) and the low resistance (LR) devices were tested at 40, 60, 85 and 100 LPM, respectively.\nThe aerosolized composition is administered to a patient in need of treatment of PH, e.g., PAH or PH associated with interstitial lung disease (PH-ILD). In one embodiment, the aerosolized composition is administered to a patient in need of treatment of pulmonary fibrosis (e.g., PH-ILD where the ILD is pulmonary fibrosis). The aerosolized composition can be characterized by certain parameters known to those of skill in the art, such as fine particle fraction (FPF), fine particle dose (FPD), emitted dose (ED), mass median aerodynamic diameter (MMAD) and/or particle size and distribution. In embodiments, these parameters are measured by NGI. In embodiments, the NGI uses a flow rate corresponding to a 3 kPa to 4.5 kPa air pressure drop relative the resistance of the DPI. In embodiments, the pressure drop is 4 kPa. For example, the performance of an ultra high resistance (UHR), high resistance (HR) and medium resistance (MR) devices may be evaluated by drawing 4 L of air through the DPI at a flow rate of 40, 60 and 85 LPM, respectively, corresponding to the 4 kPa air pressure drop. Aerosol characterization data for the above-noted parameters can be compared across different DPI devices (with different resistances). In embodiments, the mean inhaler resistance of a high resistance DPI used to achieve the parameters described herein ranges from 0.025 to 0.040 kPA^1/2 (L/min^−1)^−1. In embodiments, the mean inhaler resistance of a high resistance DPI used to achieve the parameters described herein ranges from 0.030 to 0.040 kPA^1/2 (L/min^−1)^−1. In embodiments, the mean inhaler resistance of a high resistance DPI used to achieve the parameters described herein ranges from about 0.034 to about 0.036 kPA^1/2 (L/min^−1)^−1.\nFour Plastiape RS01 Model 7 DPIs (Plastiape S. p.A., Osnago, Italy) differ with respect to their device resistance: Ultra-high Resistance (UHR, code 239700005AA), High Resistance (HR, code 239700002AA), Medium Resistance (MR, code 239700006AA) and Low Resistance (LR, code 239700001AB). The pressure drop across each device containing an empty capsule was measured as a function of flow rate between 30 and 120 L/min (LPM). The present disclosure teaches that the high resistance DPI device is selected for evaluation and use. A peak inspiratory flow rate of 80 LPM, 60 LPM, 40 LPM, or 30 LPM corresponds to a pressure drop of 5.4 kPa, 4 kPa, 1.4 kPa, or 0.89 kPa, respectively, for the high resistance DPI.\nIn this Example, Applicant investigated the aerosol performance of TPIP in response to changes in capsule fill, device resistance, and inspiratory flow rate to enable selection of an inhaler for clinical use. Capsules containing 8, 16 or 32 mg of TPIP (80, 160, or 320 μg TP, respectively) were evaluated using four breath-actuated RS01 devices with low, medium, high or ultra-high inspiratory resistances, creating 12 different capsule and device configurations for evaluation.\nThe TP aerosol particle size distribution profiles for the UHR, HR, MR, and LR DPI devices are shown in FIGS. 7A-7C for the 8, 16 and 32 mg TPIP capsules, respectively. The TP aerosol particle size distribution profiles are polydisperse for the LR, MR and HR devices with the UHR device showing a trend towards a less polydisperse profile. The values for the total mass recoveries, emitted dose, MMAD, GSD, FPF, and FPD for the UHR, HR, MR, and LR devices loaded with 8, 16 and 32 mg TPIP capsules are shown in Table 5."}, "[3]": {"details": "16 mg capsule, all four devices"}, "[4]": {"details": "32 mg capsule, LR device, 100 LPM"}, "[5]": {"details": "32 mg capsule, MR device (printed MA), 85 LPM"}},
  "data": [
    {"smiles": "CCCCCCCCCCCCCCCCOC(=O)COc1cccc2c1C[C@H]1C[C@@H](O)[C@H](CC[C@@H](O)CCCCC)[C@H]1C2", "note": "[TP, treprostinil palmitil]", "values": [
      {"measurement": "ED", "setting": "[1]; 16 mg capsule, 1, 2, 4 L, 25 ms ramp", "result": 76, "unit": "%"},
      {"measurement": "emitted doses", "setting": "[1]; 16 mg capsule, 1, 2, 4 L, 1000 ms ramp", "result": "72-75%"},
      {"measurement": "FPD (<5 μm), TP", "setting": "[1]; 25 ms ramp, 1 L", "result": 93, "unit": "µg"},
      {"measurement": "FPD (<5 μm), TP", "setting": "[1]; 25 ms ramp, 4 L", "result": 92, "unit": "µg"},
      {"measurement": "FPD (<5 μm), TP", "setting": "[1]; 1000 ms ramp, 1 L", "result": 87, "unit": "µg"},
      {"measurement": "FPD (<5 μm), TP", "setting": "[1]; 1000 ms ramp, 4 L", "result": 90, "unit": "µg"},
      {"measurement": "FPD", "setting": "[2]; [3]", "result": "98 to 104", "unit": "µg"},
      {"measurement": "FPF", "setting": "[2]; [3]", "result": "71-81%"},
      {"measurement": "FPD (<5 μm), TP", "setting": "[2]; [4]", "result": 155, "unit": "µg"},
      {"measurement": "FPF (<5 μm)", "setting": "[2]; [4]", "result": 58, "unit": "%"},
      {"measurement": "FPD (<5 μm), TP", "setting": "[2]; [5]", "result": 168, "unit": "µg"},
      {"measurement": "FPF (<5 μm)", "setting": "[2]; [5]", "result": 62, "unit": "%"},
      {"measurement": "FPD", "setting": "[2]; 32 mg capsule, UHR and HR devices", "result": "197 to 200", "unit": "µg"},
      {"measurement": "FPF", "setting": "[2]; 32 mg capsule, all four devices", "result": "58-76%"}
    ]}
  ]
}
